Assay results taken from patent US12653805B2, “Targeting LASP1, eIF4A1, eIF4B and CXC4 with modulators and combinations thereof for cancer therapy” (The University of Toledo, priority 2019, dated 2026).

Key:
[1] = system: triple-negative MDA-MB-231 cells; assay: Immunoblotting after digoxin in MDA-MB-231 cells; format: cell-based, human
[2] = target: T1, eIF4A1 (Homo sapiens, UniProt P60842); format: cell-based
T1 construct: A GQ-5′-UTR dual reporter was created in breast cancer cell lines; endogenous in cells
T1 sequence (P60842 whole entry): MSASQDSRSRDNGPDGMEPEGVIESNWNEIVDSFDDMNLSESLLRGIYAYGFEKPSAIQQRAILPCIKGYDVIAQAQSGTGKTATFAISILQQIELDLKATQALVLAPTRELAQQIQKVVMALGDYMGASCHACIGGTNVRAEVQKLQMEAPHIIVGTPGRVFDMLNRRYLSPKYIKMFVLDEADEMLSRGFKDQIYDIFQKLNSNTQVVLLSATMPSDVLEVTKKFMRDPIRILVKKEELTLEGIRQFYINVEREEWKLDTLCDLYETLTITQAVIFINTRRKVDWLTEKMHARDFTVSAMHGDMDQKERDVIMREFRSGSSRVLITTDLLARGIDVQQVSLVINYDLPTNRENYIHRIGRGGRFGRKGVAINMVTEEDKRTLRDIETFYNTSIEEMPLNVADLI
Text: A GQ-5′-UTR dual reporter was created in breast cancer cell lines which would report either a reduction in td-Tomato fluorescence or luciferase activity if eIF4A1 is inhibited by any of the compounds in the Prestwick library (FIGS. 26A-26B).

[3] = system: MCF7 breast cancer cells; details: RNA-Seq data, p 4.3E−10, adjusted p 8.5E−7; cited from earlier work
[4] = system: triple-negative SUM-159-PT cells; assay: Immunoblotting after digoxin in SUM-159-PT cells; format: cell-based, human; details: 30 nM digoxin (low dose)
[5] = system: BCSCs derived from MDA-Bone-Un cells; assay: Immunoblotting of RocA-treated BCSCs from MDA-Bone-Un; format: cell-based, human
[6] = system: BCSCs derived from SUM-159PT cells; assay: CellTiter-Glo viability assay in BCSCs from SUM-159PT; format: cell-based, human; details: 5 nM RocA
Text: (§1) The cell viability was alternatively determined on day 7 following treatment with RocA by employing the CellTiter-Glo® luminescent cell viability kit (Promega, Cat. #—G7570) as per the manufacturer's instructions. This quantitative assay is a homogeneous method of determining the number of viable cells in culture based on the amount of adenosine triphosphate (ATP) present inside the cells.

[7] = system: BCSCs derived from MDA-Bone-Un cells; assay: DRAQ7 cell death assay in BCSCs from MDA-Bone-Un; format: cell-based, human; details: 30 nM RocA, 7 days
Protocol: (§2) The induction of cell death by the small molecule inhibitor rocaglamide A (RocA) (Sigma/Aldrich, St. Louis, Mo., Cat. #—SML0656) was followed by employing Deep Red Anthraquinone 7 (DRAQ7) dye (Abcam, Cat. #—ab109202). DRAQ7 is a cell impermeable, far-red fluorescent DNA dye that stains the nuclei of dead and plasma membrane-compromised cells. […] For the cell death analysis, ALDH+ BCSCs were treated with the indicated drug dosage for 7 days. On day 7, DRAQ7 was added to the cells (1:2,000 dilution) and incubated overnight. Dead BCSCs were tracked by DRAQ7 fluorescence by employing the EVOS cell imaging system (ThermoFisher Scientific, Rockford, Ill.).

[8] = system: BCSCs derived from SUM-159PT cells; assay: Mammosphere formation efficiency (MFE) assay, BCSCs from SUM-159PT; format: cell-based, human
Protocol: (§3) The evaluation of MFE was performed as described previously. Briefly, 1×10^3 ALDH+ BCSCs of MDA-Bone-Un or SUM-159PT origins were seeded onto 96-well ultra-low attachment plates. They were maintained in DMEM/F12 media supplemented with […] bFGF, […] hEGF, 2% B27 mixture, and 1% penicillin/streptomycin for 7 days. The mammosphere images were obtained longitudinally by employing IncuCyte® S3 Live-Cell Analysis System (Essen BioScience, Ann Arbor, Mich.). On day 7, MFE was calculated by employing the formula: (number of mammospheres formed/total number of cells seeded)×100. A diameter of 100 μm was used as a cut-off in the determination of the mammosphere forming ability. For the assessment of secondary MFE, the BCSCs from primary MFE were collected, centrifuged, and re-seeded onto 96-well plates coated with poly 2-hydroxyethyl methacrylate (poly-HEMA). The cells were monitored, and the mammospheres were counted using IncuCyte.

[9] = system: BCSCs derived from MDA-Bone-Un cells; assay: CellTiter-Glo viability assay in BCSCs from MDA-Bone-Un; format: cell-based, human; details: 7 days
Text: as §1

[10] = system: MDA-Bone-Un eIF4A CC and KO cells; assay: Viability of MDA-Bone-Un eIF4A CRISPR control and knockout cells after RocA; format: cell-based, human; details: 48 h
Protocol: (§4) Briefly, to assess the cell viability, 3×10^3 cells/well (SUM-159PT, SUM Pac 200 nM, MDA-Bone-Un eIF4A CC and KO) were seeded and the cells were allowed to attach and spread overnight under adherent or non-adherent low attachment conditions.

[11] = system: SUM-159PT cells; assay: Viability of parental and paclitaxel-resistant SUM-159PT cells after RocA; format: cell-based, human; details: therapy naïve and paclitaxel-resistant (Pac 200) cells, 48 h, adherent and non-adherent conditions
Protocol: as §4

[12] = system: BCSCs derived from SUM-159PT cells; assay: DRAQ7 cell death assay in BCSCs from SUM-159PT; format: cell-based, human; details: 5 nM RocA, day 7
Protocol: as §2

[13] = system: 231S LASP1 NS and KD cells; assay: Pharmacological inhibition of eIF4A in 231S LASP1 NS and KD cells; format: cell-based, human
Protocol: 231S LASP1 NS/KD cells were plated into 96-well dishes (3,000 cells/well) and incubated with various amounts of rocaglamide A (RocA) (Sigma/Aldrich, St. Louis, Mo., Cat. No. SML0656) in low serum media (LSM-DMEM/0.5% FBS). Images were acquired via an IncuCyte R S3 Live-Cell Analysis System (Essen BioScience, Ann Arbor, Mich.). Two images per well were acquired every 2 h. Data was processed on the IncuCyte S3 software (Essen BioScience, Ann Arbor, Mich.). Only cells with an area >150 μm^2 were analyzed to avoid cellular debris. Data is reflective of the percent confluence of each image at 36 h RocA incubation. Percent inhibition was calculated in reference to the DMSO control. The readings from 231S LASP1 NS cells were set to 1. In the cell viability experiments, 231S LASP1 NS/KD cells were seeded at 6,000 cells/well and allowed to attach and spread overnight. The following day, complete media was replaced with LSM and RocA. Cell viability was then determined 36 h later using a cell counting kit-8 (Sigma/Aldrich, St. Louis, Mo., Cat. No 96992) according to the manufacturer's instructions. Data is reflective of the absorbance at 450 nm (A450). The DMSO controls were set to 100%.

[14] = system: BCSCs derived from MDA-Bone-Un cells; assay: Mammosphere formation efficiency (MFE) assay, BCSCs from MDA-Bone-Un; format: cell-based, human; details: 10 nM RocA, p<0.0001
Protocol: as §3

[15] = 45 nM RocA, 72 h, pooled replicates

C[C@H]1O[C@@H](O[C@H]2[C@@H](O)C[C@H](O[C@H]3[C@@H](O)C[C@H](O[C@H]4CC[C@@]5(C)[C@H](CC[C@@H]6[C@@H]5C[C@@H](O)[C@]5(C)[C@@H](C7=CC(=O)OC7)CC[C@]65O)C4)O[C@@H]3C)O[C@@H]2C)C[C@H](O)[C@@H]1O [digoxin]
downstream effectors of eIF4A1 activity BIRC5 (survivin) and Rho Kinase 1 (ROCK1) [1]: dose-dependent inhibition
activity of eIF4A1 ([2]; 3 different TNBC cell lines): potently inhibited
Z-score ([2]; Prestwick chemical library screen): below −5
C-Myc mRNA level [3]: decrease
downregulation (reduction) of c-MYC [4]: 60%
downregulation of the levels of eIF4A1 [4]: 50%

COc1ccc([C@@]23Oc4cc(OC)cc(OC)c4[C@]2(O)[C@H](O)[C@H](C(=O)N(C)C)[C@H]3c2ccccc2)cc1 [rocaglamide A]
reduction in NANOG level ([5]; 15 nM RocA, 48 h): 2 fold
reduction of ABC transporter ABCB1 ([5]; 45 nM RocA, 48 and 72 h, pooled replicates): 10 fold
decrease of SOX2 level ([5]; 45 nM RocA, 24 h, pooled replicates): 10 fold
reduction in NANOG level ([5]; 45 nM RocA, 48 h): 10 fold
reduction of OCT4 ([5]; 45 nM RocA, 48 h (dose experiment)): 3.3 fold
decrease of OCT4 ([5]; 45 nM RocA, 48 h, 3 biological replicates pooled): 2.5 fold
SOX2 level increased back ([5]; 45 nM RocA, 48 h, pooled replicates): 2 fold
SOX2 [5, 15]: degradation of SOX2 was observed
decrease of OCT4 [5, 15]: 10 fold
expression of BIRC5, Cyclin D1, Cyclin D3, and ROCK1 ([5]; 15, 30, and 45 nM RocA, 48 h): dramatic reduction
total protein level of eIF4A ([5]; 15, 30, and 45 nM RocA, 48 h): did not affect
induction of cleaved caspase-3 (increase) ([5]; RocA 15-45 nM, 48 h): up to 17.1 fold
levels of the BCSC markers ALDH1A1 and CD44 ([5]; RocA, 48 h): not affected
SOX2 level ([5]; all concentrations of RocA, 48 h): remained elevated above the basal level
cells dead [6]: More than 50%
DRAQ7 staining (dead BCSCs) [7]: intense DRAQ7 staining
reduction in formation of the primary mammospheres ([8]; 10 nM RocA): 50%
decrease in secondary MFE ([8]; RocA, compared with primary MFE): more drastic
viability based on ATP level ([9]; 30 nM RocA): nearly all BCSCs were wiped out
IC50 ([9]; cellular ATP, read-out: half maximal inhibitory concentration (IC50)): 15 nM
viability following RocA challenge ([10]; MDA-Bone-Un eIF4A CC cells): steep decrease in viability
sensitivity of viability to RocA ([10]; MDA-Bone-Un eIF4A KO cells, up to 60 nM RocA): relatively insensitive
targeting of cell viability [11]: effective
BCSCs intensely stained with DRAQ7 [12]: More than 50%
cellular viability ([13]; 231S LASP1 KD cells, RocA 36 h, cell counting kit-8): significantly decreased
BIRC5 levels ([13]; 231S LASP1 NS cells, 24 h RocA, 30 to 100 nM): dose-dependent decrease
proliferation ([13]; MDA-MB-231 cells with stable knockdown of LASP1 combined with rocaglamide A): effectively inhibited
reduction of the primary mammospheres [14]: ~50%
secondary MFE [14]: severely impacted
